From ChEMBL document CHEMBL1201862, “PubChem BioAssay data set” (2004) come the findings set out here.

Test systems include 786-0; A549; BT-549; CAKI-1; CCRF-CEM; DU-145; HCC 2998; HOP-92; LOX IMVI; MOLT-4; PC-3; RPMI-8226; SF-295; SK-MEL-28; SK-MEL-5; SK-OV-3; T47D; U-251; UACC-257; UO-31.
Common to all, as to assay: DTP human tumour cell line panel, 48 h

Where “and” joins values, the source holds several entries; their conditions need not be identical. Equal values may be shown once.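 Briefly, cells in 96-well plates were exposed to five compound concentrations for 48 h, and endpoints were estimated by linear interpolation. GI50 marks 50% less growth.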 Calls of active or inactive are those of the source. No stated cut-off is given here; in the data, active = GI50 up to about 1.1 µM and inactive = higher.

`O=c1c2ncn(COCCCl)c2n(-c2ccccc2)c(=S)n1-c1ccccc1`: the GI50 with 786-0, in the assay with A549, in the assay with BT-549, with CAKI-1, with CCRF-CEM and in the assay on DU-145 was > 100 µM (inactive) each time. For the same compound, the GI50 in the assay on HCC 2998 was > 100 µM (inactive); in the assay on HOP-92, > 100 µM (inactive); with LOX IMVI, > 100 µM (inactive); in the assay on MOLT-4, > 100 µM (inactive); in the assay on PC-3, > 100 µM (inactive); in the assay on RPMI-8226 it was 79.8 µM (inactive). Also, the GI50 in the assay with SF-295, with SK-MEL-28, in the assay on SK-MEL-5, in the assay with SK-OV-3, with T47D and in the assay on U-251 was > 100 µM (inactive) in each case. For the same compound, the figures for the GI50 in the assay on UACC-257 and in the assay with UO-31 were > 100 µM (inactive) and 57.3 µM (inactive), respectively.
On to `CC[C@@]1(O)C(=O)OCc2c1cc1n(c2=O)Cc2cc3ccccc3nc2-1` [CAMPTOTHECIN], for which the GI50 is < 0.0214 µM (active) with 786-0; 0.0181 µM (active) in the assay with A549; 0.115 µM (active) in the assay with BT-549; 0.0118 µM (active) with CAKI-1; < 0.01 µM (active) in the assay with CCRF-CEM; < 0.01 µM (active) with DU-145. The concentration for 50% growth inhibition (GI50) in the assay with HCC 2998 was 0.159 µM (active); in the assay with HOP-92, 0.0337 µM (active); in the assay on LOX IMVI, 0.0261 µM (active); with MOLT-4, < 0.01 µM (active); in the assay on PC-3 it was 0.0644 µM (active); in the assay with RPMI-8226 it was 0.0336 µM (active). For the same compound, the GI50 was 0.0115 µM (active) in the assay with SF-295; 0.228 µM (active) with SK-MEL-28; 0.0272 µM (active) with SK-MEL-5; 0.0202 µM (active) with SK-OV-3; 0.0225 µM (active) with T47D; 0.0111 µM (active) in the assay on U-251. Also, the 50% growth inhibitory concentration (GI50) with UACC-257 is 0.0543 µM (active); with UO-31, 0.0303 µM (active).
Take `O=C1N/C(=N/N=C\C(O)C(O)C(O)CO)N/C1=C/c1ccc(Cl)cc1` (stereo not given): the GI50 in the assay with 786-0 was 53.1 µM (inactive); with A549, 71.8 µM (inactive); with BT-549 it was 30.7 µM (inactive) and 23.9 µM (inactive); in the assay on CAKI-1, 57 µM (inactive) and 47 µM (inactive); with CCRF-CEM, 25.8 µM (inactive) and 21.5 µM (inactive); in the assay on DU-145, 44.8 µM (inactive) and 70.5 µM (inactive). Moreover, the GI50 in the assay with HCC 2998 was > 10 µM (inactive); with HOP-92, 17 µM (inactive) and 32.1 µM (inactive); with LOX IMVI it was 40.6 µM (inactive) and 35.5 µM (inactive); in the assay with MOLT-4, 18.5 µM (inactive) and 16.3 µM (inactive); with PC-3, 42.8 µM (inactive) and 37.5 µM (inactive); with RPMI-8226, 33.2 µM (inactive) and 34.4 µM (inactive). Also, the GI50 is 41.5 µM (inactive) with SF-295; > 100 µM (inactive) and 64.6 µM (inactive) with SK-MEL-28; 32 µM (inactive) and 46.6 µM (inactive) with SK-MEL-5; 63.5 µM (inactive) in the assay with SK-OV-3; 34.1 µM (inactive) and 21.9 µM (inactive) with T47D; 33 µM (inactive) and 34.1 µM (inactive) with U-251. The GI50 was > 100 µM (inactive) in the assay with UACC-257; 28.8 µM (inactive) and 31.7 µM (inactive) with UO-31.
Regarding `CC(C)/C(Cl)=N\OC(=O)Nc1ccc(S(N)(=O)=O)cc1`, the GI50 was 17.3 µM (inactive) in the assay on 786-0; 20 µM (inactive) in the assay with A549; 2.75 µM (inactive) with BT-549; 17.3 µM (inactive) in the assay with CAKI-1; 1.75 µM (inactive) with CCRF-CEM; 17.9 µM (inactive) in the assay with DU-145. The GI50 in the assay with HCC 2998 was 18 µM (inactive); with HOP-92 it was 5.25 µM (inactive); in the assay with LOX IMVI, 2.89 µM (inactive); in the assay with MOLT-4, 2.32 µM (inactive); in the assay on PC-3 it was 18.5 µM (inactive); in the assay on RPMI-8226 it was 2.16 µM (inactive). The GI50 was 15.7 µM (inactive) in the assay on SF-295; 16.2 µM (inactive) with SK-MEL-28; 15.9 µM (inactive) in the assay on SK-MEL-5; 17.7 µM (inactive) in the assay on SK-OV-3; 22.6 µM (inactive) in the assay on T47D; 19.5 µM (inactive) with U-251. The GI50 with UACC-257 is 17.4 µM (inactive); with UO-31, 16.6 µM (inactive).
For `COC(=O)C1(C(=O)OC)CC2=C(S(=O)(=O)c3ccccc3)C[C@H](S(=O)(=O)c3ccccc3)[C@H]2C1`, the GI50 in the assay on 786-0, in the assay on A549, with BT-549, with CAKI-1, in the assay on CCRF-CEM and in the assay with DU-145 was > 100 µM (inactive) each time. The GI50 in the assay with HCC 2998 was 15.7 µM (inactive); in the assay with HOP-92 it was 19.6 µM (inactive); with LOX IMVI it was > 100 µM (inactive); with MOLT-4 it was 46.7 µM (inactive); with PC-3 it was 41.9 µM (inactive); in the assay with RPMI-8226, 11.7 µM (inactive). The GI50 with SF-295 is > 100 µM (inactive); with SK-MEL-28 it was > 100 µM (inactive); in the assay with SK-MEL-5, 82.8 µM (inactive); in the assay on SK-OV-3, > 100 µM (inactive); in the assay on T47D it was 30.3 µM (inactive); in the assay on U-251, > 100 µM (inactive). For the same compound, the GI50 with UACC-257 and in the assay on UO-31 was > 100 µM (inactive) each time.
Turning to `CC(=N\c1ccncc1)/C(C)=N/c1ccncc1`, the GI50 is 34.7 µM (inactive) with 786-0; > 100 µM (inactive) in the assay on A549; 23.3 µM (inactive) with BT-549; 16.8 µM (inactive) in the assay on CAKI-1; 25.8 µM (inactive) with CCRF-CEM; 53.6 µM (inactive) in the assay with DU-145. The GI50 in the assay with HCC 2998 is 19 µM (inactive); in the assay on HOP-92 it was 22.3 µM (inactive); with LOX IMVI, 19.5 µM (inactive); in the assay on MOLT-4, 24.4 µM (inactive); in the assay with PC-3 it was 19.3 µM (inactive); with RPMI-8226 it was 21.1 µM (inactive). The GI50 in the assay with SF-295 was 73.5 µM (inactive); with SK-MEL-28, 29.1 µM (inactive); with SK-MEL-5, 19.5 µM (inactive); in the assay on SK-OV-3, > 100 µM (inactive); with T47D, 26.2 µM (inactive); in the assay with U-251 it was 24.5 µM (inactive). For the same compound, the figures for the GI50 with UACC-257 and in the assay on UO-31 were 36.3 µM (inactive) and 17 µM (inactive), respectively.
`O=c1[nH]c2cc([N+](=O)[O-])c(Nc3c4ccccc4nc4ccccc34)c([N+](=O)[O-])c2[nH]1`: the GI50 in the assay with 786-0 is 2.39 µM (inactive); in the assay with A549, 2.69 µM (inactive); in the assay on BT-549, 6.53 µM (inactive); in the assay with CAKI-1 it was 2.19 µM (inactive); in the assay with CCRF-CEM, 4.42 µM (inactive); in the assay on DU-145, 2.29 µM (inactive). For the same compound, the GI50 with HCC 2998 was 1.73 µM (inactive); in the assay on HOP-92, 2.48 µM (inactive); with LOX IMVI it was 2.37 µM (inactive); in the assay on MOLT-4, 0.938 µM (active); in the assay on PC-3, 3.32 µM (inactive); in the assay with RPMI-8226, 2.55 µM (inactive). For the same compound, the GI50 in the assay with SF-295 is 2.65 µM (inactive); with SK-MEL-28, 3.27 µM (inactive); with SK-MEL-5, 2.45 µM (inactive); with SK-OV-3, 4.04 µM (inactive); in the assay on T47D, 2.49 µM (inactive); in the assay with U-251, 3.58 µM (inactive). Besides, the GI50 with UACC-257 is 4.03 µM (inactive); in the assay with UO-31 it was 2.09 µM (inactive).

For orientation: GI50 means the concentration giving 50% growth inhibition.
